Laboratory results reported in patent publication US20230172204A1 (BASF SE, priority 2020, published 2023).

How the values were obtained:
[1] = system: Phakopsora pachyrhizi (F129L); assay: Protective control of soybean rust on soybeans (PHAKPA P2); type: in vivo; settings: for % PHAKPA (F129L) Disease level P2 at 4 ppm: protective P2, 4 ppm; for % PHAKPA (F129L) Disease level P2 at 4 ppm / % PHAKPA (F129L) Disease level P2 at 16 ppm: soybean rust F129L; for % PHAKPA (F129L) Disease level P2 at 16 ppm: protective P2, 16 ppm; for PHAKPA (F129L) Disease level (%) P2 at 4 ppm / PHAKPA (F129L) Disease level (%) P2 at 16 ppm: P2 protective, % diseased leaf area
[2] = system: Phakopsora pachyrhizi (F129L); assay: Protective control of soybean rust on soybeans (PHAKPA P6); type: in vivo; settings: for % PHAKPA (F129L) Disease level P6 at 4 ppm: protective P6, 4 ppm; for % PHAKPA (F129L) Disease level P6 at 4 ppm / % PHAKPA (F129L) Disease level P6 at 16 ppm: soybean rust F129L; for % PHAKPA (F129L) Disease level P6 at 16 ppm: protective P6, 16 ppm; for PHAKPA (F129L) Disease level (%) P6 at 4 ppm / PHAKPA (F129L) Disease level (%) P6 at 16 ppm: P6 protective, % diseased leaf area

Structure (SMILES) | % PHAKPA (F129L) Disease level P2 at 4 ppm [1] [%] | % PHAKPA (F129L) Disease level P2 at 16 ppm [1] [%] | % PHAKPA (F129L) Disease level P6 at 4 ppm [2] [%] | % PHAKPA (F129L) Disease level P6 at 16 ppm [2] [%] | PHAKPA (F129L) Disease level (%) P2 at 4 ppm [1] [%] | PHAKPA (F129L) Disease level (%) P6 at 4 ppm [2] [%] | PHAKPA (F129L) Disease level (%) P2 at 16 ppm [1] [%] | PHAKPA (F129L) Disease level (%) P6 at 16 ppm [2] [%]
CO/N=C(/C(=O)OC)c1cccc(C)c1CO/N=C(\C)c1ccc(C#N)cc1C(F)(F)F [compound 423] | 100 | 57 | 93 | 53 |  |  |  | 
CNC(=O)/C(=N/OC)c1cccc(C)c1CO/N=C(\C)c1cc(Cl)cc(Cl)c1 [Ex. 4, (2E)-2-[2-[[(E)-1-(3,5-dichlorophenyl)ethylideneamino]oxymethyl]-3-methyl-phenyl]-2-methoxyimino-N-methyl-acetamide] | 2 | 0 | 13 | 1 | 2 | 17 |  | 
CNC(=O)/C(=N/OC)c1cccc(C)c1CO/N=C(\C)c1c(F)cccc1OC(F)(F)F [compound 325] | 24 | 4 | 22 | 1 |  |  |  | 
CO/N=C(/C(=O)OC)c1cccc(C)c1CO/N=C(\C)c1cc(C)cc(Cl)c1 [compound 101] | 70 | 37 | 60 | 17 |  |  |  | 
CCc1cccc(/C(=N\OC)C(=O)NC)c1CO/N=C(\C)c1cccc(C(F)(F)F)c1 [compound 62] | 43 | 0 | 60 | 3 |  |  |  | 
CO/N=C(/C(=O)OC)c1cccc(C)c1CO/N=C(\C)c1ccccc1CC(F)(F)F [compound 222] | 100 | 57 | 100 | 93 |  |  |  | 
CO/N=C(/C(=O)OC)c1cccc(C)c1CO/N=C(\C)c1cccc(-c2noc(C(F)(F)F)n2)c1 [compound 66] | 100 | 70 | 93 | 87 |  |  |  | 
CO/N=C(\C)c1ccc(/C(C)=N/OCc2c(C)cccc2/C(=N\OC)C(=O)OC)cc1 [Ex. 181] | 22 | 11 | 33 | 5 |  |  | 12 | 5
CO/N=C(/C(=O)OC)c1cccc(C)c1CO/N=C(\C)c1c(C)cccc1C [compound 174] | 100 | 100 | 80 | 70 |  |  |  | 
CNC(=O)/C(=N/OC)c1ccccc1CO/N=C(\C)c1ccccc1 [reference compound] |  |  |  |  | 87 | 100 |  | 
CO/N=C(/C(=O)OC)c1cccc(C)c1CO/N=C(\C)c1cccc(C(C)(C)C)c1 [compound 96] | 6 | 1 | 3 | 0 |  |  |  | 
CO/N=C(/C(=O)OC)c1ccccc1CO/N=C(\C)c1cccc(C#N)c1 [reference compound] |  |  |  |  |  |  | 80 | 43
CNC(=O)/C(=N/OC)c1ccccc1CO/N=C(/c1ccc(F)cc1)C(F)F [reference compound] |  |  |  |  |  |  | 15 | 15
CO/N=C(/C(=O)OC)c1ccccc1CO/N=C(\C)c1cccc(C)c1 [reference compound] |  |  |  |  |  |  | 93 | 83
CNC(=O)/C(=N/OC)c1cccc(C)c1CO/N=C(\C)c1cc(C)cc(C)c1 [compound 99] | 43 | 12 | 87 | 33 |  |  |  | 
CO/N=C(/C(=O)OC)c1cccc(C)c1CO/N=C(\C)c1cc(Br)cc(F)c1F [compound 240] | 70 | 8 | 73 | 3 |  |  |  | 
C#Cc1cc(F)cc(/C(C)=N/OCc2c(C)cccc2/C(=N\OC)C(=O)NC)c1 [compound 55] | 3 | 1 | 13 | 5 |  |  |  | 
CNC(=O)/C(=N/OC)c1ccccc1CO/N=C(\C)c1cccc(C(F)(F)F)c1 [reference compound] |  |  |  |  | 12 | 38 |  | 

Structure (SMILES) | % PHAKPA (F129L) Disease level P2 at 4 ppm [1] [%] | % PHAKPA (F129L) Disease level P2 at 16 ppm [1] [%] | % PHAKPA (F129L) Disease level P6 at 4 ppm [2] [%] | % PHAKPA (F129L) Disease level P6 at 16 ppm [2] [%] | PHAKPA (F129L) Disease level (%) P2 at 4 ppm [1] [%] | PHAKPA (F129L) Disease level (%) P6 at 4 ppm [2] [%] | PHAKPA (F129L) Disease level (%) P2 at 16 ppm [1] [%] | PHAKPA (F129L) Disease level (%) P6 at 16 ppm [2] [%]
CNC(=O)/C(=N/OC)c1cccc(C)c1CO/N=C(\CC(F)(F)F)c1ccccc1 [compound 380] | 53 | 5 | 60 | 12 |  |  |  | 
CO/N=C(/C(=O)OC)c1cccc(C)c1CO/N=C(\C)c1ccc(F)c(F)c1OC(F)(F)F [compound 447] | 7 | 0 | 33 | 1 |  |  |  | 
C=Cc1cc(/C(C)=N/OCc2c(C)cccc2/C(=N\OC)C(=O)NC)cc(C(F)(F)F)c1 [compound 152] | 24 | 1 | 38 | 7 |  |  |  | 
CNC(=O)/C(=N/OC)c1cccc(C)c1CO/N=C(\C)c1ccccc1-c1ccccc1 [compound 124] | 98 | 87 | 92 | 75 |  |  |  | 
CNC(=O)/C(=N/OC)c1cccc(C)c1CO/N=C(\C)c1ccccc1Cl [compound 128] | 32 | 2 | 77 | 2 |  |  |  | 
C#Cc1cc(/C(C)=N/OCc2c(C)cccc2/C(=N\OC)C(=O)OC)cc(C(F)(F)F)c1 [compound 143] | 4 | 0 | 15 | 0 |  |  |  | 
CNC(=O)/C(=N/OC)c1cccc(C)c1CO/N=C(\C)c1cccc(C(F)(F)F)c1F [compound 69] | 2 | 0 | 13 | 0 |  |  |  | 
CNC(=O)/C(=N/OC)c1cccc(C)c1CO/N=C(\C)c1cc(F)cc(C(F)(F)F)c1 [compound 50] | 2 | 1 | 6 | 0 |  |  |  | 
C#Cc1ccc(/C(C)=N/OCc2c(C)cccc2/C(=N\OC)C(=O)NC)cc1 [compound 196] | 1 | 0 | 11 | 5 |  |  |  | 
CO/N=C(/C(=O)OC)c1cccc(C)c1CO/N=C(/c1cccc(C)c1)C1CC1 [drawing 971, reference compound] |  |  |  |  | 80 |  |  | 37
C#Cc1cccc(/C(C)=N/OCc2c(C)cccc2/C(=N\OC)C(=O)NC)c1 [compound 54] | 0 | 1 | 20 | 0 |  |  |  | 
CO/C=C(/C(=O)OC)c1cccc(C)c1CO/N=C(\C)c1ccc(F)c(F)c1OC(F)(F)F [compound 450] | 3 | 1 | 4 | 1 |  |  |  | 
CO/N=C(/C(=O)OC)c1cccc(C)c1CO/N=C(/c1ccccc1)C(F)F [compound 72] | 100 | 87 | 93 | 80 |  |  |  | 
CO/N=C(/C(=O)OC)c1cccc(C)c1CO/N=C(\C)c1ccc(Cl)cc1 [Ex. 154] | 30 | 13 | 63 | 9 |  |  | 25 | 17
CNC(=O)/C(=N/OC)c1cccc(C)c1CO/N=C(\C)c1cccc(N2CC(F)(F)C2)c1 [compound 44] | 77 | 17 | 77 | 21 |  |  |  | 
CNC(=O)/C(=N/OC)c1ccccc1CO/N=C(\C)c1ccc(C)cc1 [reference compound] |  |  |  |  | 100 | 100 |  | 
CO/C=C(/C(=O)OC)c1cccc(C)c1CO/N=C(\C)c1ccc(-c2ccccc2)cc1OC(F)(F)F [compound 433] | 83 | 67 | 80 | 57 |  |  |  | 
CO/N=C(/C(=O)OC)c1cccc(C)c1CO/N=C(\C)c1cc(F)c(F)cc1C(F)(F)F [compound 409] | 77 | 40 | 83 | 73 |  |  |  | 
